Measured values from patent US6413970B1, “Pharmaceutical composition for treating viral diseases” (UCB S.A., priority 1996, dated 2002).
Counter-ions that a name gives are not always drawn.

Tests used:
Type in all cases: cell-based
[1] = system: RSV-induced IL-8 release from human PMN; assay: RSV-induced IL-8 release from human PMN, ELISA
Protocol: (§1) Human granulocytes were isolated from 200 ml of heparinized blood (15 U ml) from healthy donors separated on a Ficoll-metrizoate gradient followed by dextran sedimentation and washed twice at 300 g. This method led to more than 95% pure PMN. The cells were diluted to a final density of 1×10^6 PMN.
(§2) Virus preparation was performed as described by R. ARNOLD et al. in Immunology 82, 126-133 (1994). For crude preparation, respiratory syncytial virus (RSV), Long Stain (ATCC), was grown and titrated in HEP-2 cells. The RSV titre was determined in a plaque-forming unit (PFU) assay. The stock titre of the virus pool used in the study was 5×10^6 PFU/ml. The stock solution was stored at −70° C. until use. Interleukin-8 (IL-8) levels were under the detection limit in the stock solution, as analysed by enzyme-linked immuno sorbent assay (ELISA). The absence of mycoplasma infection was verified by microplasma-specific PCR. […]
(§3) PMN were suspended in RPMI medium at a concentration of 1×10^6/ml. […] Culture supernatants were collected and analyzed for their IL-8 content. IL-8 release was determined using a sandwich ELISA according to the method indicated hereinbefore. […] After addition of p-nitrophenylphosphate (15 mg/ml) for quantification, an ELISA reader and for calculation Mikrotek software (SLT Labinstruments, Crailsheim, Germany) were used. […]

[2] = system: ongoing IL-8 release induced by RSV, human PMN; assay: Ongoing IL-8 release induced by RSV in human PMN, delayed cetirizine addition, ELISA
Protocol: as §1, §2, §3

[3] = system: respiratory syncytial virus (RSV); assay: RSV-specific mRNA (SH gene) expression in RSV-treated human PMN, RT-PCR; conditions: human PMN 1×10^6/ml, RSV 1 m.o.i., cetirizine 100-, 0.1-, 0.01 μg/10^6 PMN, 2 hours and 16 hours at 37° C., FIG. 2
Protocol: as §1, §2
The analysis of RSV-specific genomic RNA was performed by coupled reverse transcription and polymerase chain reaction PCR detection of RSV-genomic-RNA encoding for the small hydrophobic protein (SH) of RSV as described previously by R. ARNOLD et al. in Immunology 82, 126-133 (1994). […] Expression of genomic RSVSH RNA was analysed after reverse transcription with sense primers and PCR amplification of the cDNA transcripts. […]

Compound: O=C(O)COCCN1CCN(C(c2ccccc2)c2ccc(Cl)cc2)CC1 (racemic) [cetirizine dihydrochloride, 2-[2-[4-[(4-chlorophenyl)phenylmethyl]-1-piperazinyl]ethoxy]-acetic acid]
- RSV-induced IL-8 release at the stated concentration range ([1]; cetirizine at concentrations <0.01 μg/ml but >100 μg/ml (so in the source), similar after incubation up to 24 hours and RSV up to 5 m.o.i.): significant reduction in RSV-induced IL-8 release
- RSV-induced IL-8 release ([1]; human PMN 1×10^6/ml, total incubation 2 hours at 37° C., cetirizine 100-0.01 μg/ml, dose-dependent, 8 independent experiments, FIG. 3): down-regulated the RSV-induced IL-8 release
- Down regulation of RSV-induced IL-8 release, concentration range of strongest effect ([2]; cetirizine concentrations >0.01 μg/ml and <10 μg/ml, strongest when added at the onset of RSV treatment): most pronounced
- ongoing IL-8 release by RSV ([2]; human PMN 1×10^6/ml, RSV 1 m.o.i., cetirizine 100 μg, 10 μg, 0.01 μg added immediately, 30, 60 or 90 minutes after onset of RSV treatment, total 2 hours at 37° C., FIG. 4A-D): down regulates an ongoing IL-8 release by RSV
- RSV-specific mRNA expression of the small hydrophobic (SH) gene [3]: inhibits RSV-specific mRNA expression
